From patent US8637511B2, “Aminopyrimidines useful as kinase inhibitors” (Vertex Pharmaceuticals Incorporated, priority 2005, dated 2014)

Legend:
human Itk kinase = target: T1, human Itk kinase (Homo sapiens, UniProt Q08881); assay: Itk inhibition assay: radioactivity-based assay; assay type: biochemical; conditions: Ki(app)
T1 sequence (Q08881 1-620): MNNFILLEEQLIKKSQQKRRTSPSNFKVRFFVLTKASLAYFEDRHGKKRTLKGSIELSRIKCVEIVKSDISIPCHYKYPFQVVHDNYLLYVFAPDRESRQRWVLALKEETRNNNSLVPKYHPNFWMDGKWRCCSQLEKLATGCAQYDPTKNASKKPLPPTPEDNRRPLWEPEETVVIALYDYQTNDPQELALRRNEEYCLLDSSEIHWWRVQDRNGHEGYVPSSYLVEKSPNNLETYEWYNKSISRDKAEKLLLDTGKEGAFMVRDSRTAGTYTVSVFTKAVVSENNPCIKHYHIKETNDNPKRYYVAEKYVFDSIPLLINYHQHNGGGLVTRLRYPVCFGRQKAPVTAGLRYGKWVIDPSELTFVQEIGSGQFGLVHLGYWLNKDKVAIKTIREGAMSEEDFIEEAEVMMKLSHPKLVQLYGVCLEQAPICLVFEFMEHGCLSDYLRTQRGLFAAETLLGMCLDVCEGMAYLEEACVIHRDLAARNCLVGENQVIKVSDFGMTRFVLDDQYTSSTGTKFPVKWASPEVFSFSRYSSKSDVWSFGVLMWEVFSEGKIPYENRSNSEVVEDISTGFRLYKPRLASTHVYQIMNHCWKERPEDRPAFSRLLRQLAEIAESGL
Method: The compounds of the present invention were evaluated as inhibitors of human Itk kinase using a radioactivity-based assay. These compounds can also be evaluated using a spectrophotometric or alphascreen assay.
Assays were carried out in a mixture of 20 mM MOPS (pH 7.0), 10 mM MgCl2, 0.1% BSA and 1 mM DTT. Final substrate concentrations in the assay were 7.5 μM [γ-^33P]ATP (400 μCi ^33P ATP/μmol ATP, Amersham Pharmacia Biotech/Sigma Chemicals) and 3 μM peptide (SAM68 protein Δ332-443). Assays were carried out at 25° C. in the presence of 50 nM Itk. An assay stock buffer solution was prepared containing all of the reagents listed above, with the exception of ATP and the test compound of interest. 50 μL of the stock solution was placed in a 96 well plate followed by addition of 2 μL of DMSO stock containing serial dilutions of the test compound (typically starting from a final concentration of 50 μM with 2-fold serial dilutions) in duplicate (final DMSO concentration 2%). The plate was pre-incubated for 10 minutes at 25° C. and the reaction initiated by addition of 50 μL [γ-^33P]ATP (final concentration 7.5 μM).
The reaction was stopped after 10 minutes by the addition of 100 μL 0.2M phosphoric acid+0.01% TWEEN 20. A multiscreen phosphocellulose filter 96-well plate (Millipore, Cat no. MAPHNOB50) was pretreated with 100 μL 0.2M phosphoric acid+0.01% TWEEN 20 prior to the addition of 170 μL of the stopped assay mixture. The plate was washed with 4×200 μL 0.2M phosphoric acid+0.01% TWEEN 20. After drying, 30 μL Optiphase ‘SuperMix’ liquid scintillation cocktail (Perkin Elmer) was added to the well prior to scintillation counting (1450 Microbeta Liquid Scintillation Counter, Wallac).
Ki(app) data were calculated from non-linear regression analysis of the initial rate data using the Prism software package (GraphPad Prism version 3.0cx for Macintosh, GraphPad Software, San Diego Calif., USA).

FLT-3 = target: T2, FLT-3 (Homo sapiens, UniProt P36888); assay: FLT-3 inhibition assay, radiometric filter-binding; assay type: biochemical
T2 sequence (P36888 27-993): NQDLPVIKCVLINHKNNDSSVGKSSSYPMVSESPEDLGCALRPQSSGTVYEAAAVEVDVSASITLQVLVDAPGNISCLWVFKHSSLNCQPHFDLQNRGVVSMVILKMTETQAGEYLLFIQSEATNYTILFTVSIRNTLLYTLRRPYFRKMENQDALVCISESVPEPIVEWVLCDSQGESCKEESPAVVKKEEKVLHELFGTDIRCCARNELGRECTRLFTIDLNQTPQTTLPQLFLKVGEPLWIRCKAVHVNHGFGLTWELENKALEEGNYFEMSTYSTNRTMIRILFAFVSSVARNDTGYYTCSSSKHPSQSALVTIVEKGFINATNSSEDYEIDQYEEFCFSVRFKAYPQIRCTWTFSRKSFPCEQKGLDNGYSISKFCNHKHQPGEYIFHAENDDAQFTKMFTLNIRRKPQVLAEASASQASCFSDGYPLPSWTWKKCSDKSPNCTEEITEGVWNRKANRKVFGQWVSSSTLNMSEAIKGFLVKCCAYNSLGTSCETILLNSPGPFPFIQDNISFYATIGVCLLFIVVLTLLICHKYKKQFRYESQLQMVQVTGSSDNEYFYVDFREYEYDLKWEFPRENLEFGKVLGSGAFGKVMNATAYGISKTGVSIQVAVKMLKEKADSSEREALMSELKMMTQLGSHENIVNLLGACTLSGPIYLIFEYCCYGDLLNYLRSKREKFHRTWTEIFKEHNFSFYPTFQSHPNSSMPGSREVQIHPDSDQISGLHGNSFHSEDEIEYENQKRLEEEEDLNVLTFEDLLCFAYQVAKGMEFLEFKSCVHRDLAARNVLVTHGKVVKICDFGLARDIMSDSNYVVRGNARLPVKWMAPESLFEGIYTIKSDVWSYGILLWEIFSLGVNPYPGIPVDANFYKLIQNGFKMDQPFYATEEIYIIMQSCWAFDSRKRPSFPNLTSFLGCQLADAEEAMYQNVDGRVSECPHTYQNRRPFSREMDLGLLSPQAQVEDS
Method: This assay monitors the 33P incorporation into a substrate poly(Glu, Tyr) 4:1 (pE4Y). […] Final substrate concentrations in the assay were 90 μM ATP and 0.5 mg/ml pE4Y (both from Sigma Chemicals, St. Louis, Mo.). […] Reactions were carried out at room temperature.
Two assay solutions were prepared. Solution 1 contains 100 mM HEPES (pH 7.5), 10 mM MgCl2, 25 mM NaCl, 1 mg/ml pE4Y and […] (containing 0.3 mCi of [γ-33^P]ATP for each reaction). Solution 2 contains 100 mM HEPES (pH 7.5), 10 mM MgCl2, 25 mM NaCl, 2 mM DTT, 0.02% BSA and 3 nM FLT-3. The assay was run on a 96 well plate by mixing 50 μl each of Solution 1 and […] of the compounds of the present invention. The reaction was initiated with Solution 2. […] All of the reaction volume was then transferred to a filter plate and washed with 5% TCA by a Harvester 9600 from TOMTEC (Hamden, Conn.). The amount of ^33P incorporation into pE4y was analyzed by a Packard Top Count Microplate Scintillation Counter (Meriden, Conn.). The data was fitted using Prism software to get an IC50 or Ki.

Colo205 cells = assay: Analysis of cell proliferation and viability; assay type: cell-based; conditions: Homo sapiens, COLO 205; Colo205 cells, incubated for 96 hours; read-out: IC50 value

CCc1cc(Nc2cc(N3CCC3)nc(Sc3ccc(NC(=O)c4ccccc4Cl)cc3)n2)n[nH]1 [Compound 64]
Ki (human Itk kinase): ≤ 100 nM | Ki (FLT-3): 50 to 150 nM | IC50 (Colo205 cells): 50 to 1000 nM
